We go through two compounds from patent US20230357179A1, “RAF KINASE INHIBITORS AND METHODS OF USE THEREOF” (Deciphera Pharmaceuticals, LLC, priority 2021, published 2023).

Broadly, the pIC50 is the IC50 on a negative log10 scale, so that one unit is a factor of ten.

pIC50: −log10 of the molar value.

The target in experiment [1] is T1, B-Raf kinase (Homo sapiens, UniProt P15056).
T1 construct: GST (N); purchased Sigma
Briefly: Biochemical assay for B-Raf.1 (coupled pyruvate kinase/lactate dehydrogenase). The settings on record: read-out: BRAF.1 IC50. In outline: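 Reaction rates over the 4–5 h window of a continuous 6 h, 30 °C read were converted to percent inhibition and fitted for IC50. B-Raf (0.13 nM) phosphorylated 30.1 nM MEK with 1 mM ATP; ADP coupled via PK/LDH to NADH loss at 340 nm, 1% DMSO final.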

Experiment [2] concerns A375 cells. Kind of experiment: A375 cell proliferation assay (1), resazurin, 96-well. The following applies: Homo sapiens, A-375, inhibition of cell proliferation. The class given is cell-based. An outline of the steps:
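Viability was read by resazurin fluorescence at 540 nm excitation and 600 nm emission, using a 440 μM solution added for 5–6 h at the end of culture. IC50 came from the curve fit.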
In general terms: Alamar Blue is a resazurin reagent that responds to reducing activity.

Experiment [3] deals with T2, C-Raf kinase (Homo sapiens, UniProt P04049, Y340D/Y341D).
T2 construct: Y340D,; GST (N); purchased Sigma
T2 sequence (P04049 307-648 Y340D/Y341D): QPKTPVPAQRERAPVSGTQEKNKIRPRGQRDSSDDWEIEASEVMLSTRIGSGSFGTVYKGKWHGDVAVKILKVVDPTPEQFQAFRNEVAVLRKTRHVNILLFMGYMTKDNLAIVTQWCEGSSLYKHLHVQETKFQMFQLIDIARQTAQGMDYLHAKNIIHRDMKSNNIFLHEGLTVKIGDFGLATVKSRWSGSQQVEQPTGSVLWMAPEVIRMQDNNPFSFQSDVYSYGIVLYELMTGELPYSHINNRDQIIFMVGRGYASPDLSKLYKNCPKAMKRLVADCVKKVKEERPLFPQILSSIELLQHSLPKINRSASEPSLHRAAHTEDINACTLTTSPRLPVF
Kind of experiment: Biochemical assay for C-Raf.1 (coupled pyruvate kinase/lactate dehydrogenase). The settings on record: read-out: CRAF.1 IC50. An outline of the steps:
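NADH depletion at 340 nm monitored continuously for 6 h at 30° C, with rates taken over 4–5 h. The coupled pyruvate kinase/lactate dehydrogenase reaction used 1 mM ATP, 30.1 nM MEK substrate and 0.43 nM kinase at pH 7.5. IC50 was fitted sigmoidally from percent inhibition of serially diluted compound.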

The target in experiment [4] is T3, A-Raf kinase (Homo sapiens, UniProt P10398, Y301D/Y302D).
T3 construct: purchased Sigma
T3 sequence (P10398 with tags, fused parts or gaps Y301D/Y302D): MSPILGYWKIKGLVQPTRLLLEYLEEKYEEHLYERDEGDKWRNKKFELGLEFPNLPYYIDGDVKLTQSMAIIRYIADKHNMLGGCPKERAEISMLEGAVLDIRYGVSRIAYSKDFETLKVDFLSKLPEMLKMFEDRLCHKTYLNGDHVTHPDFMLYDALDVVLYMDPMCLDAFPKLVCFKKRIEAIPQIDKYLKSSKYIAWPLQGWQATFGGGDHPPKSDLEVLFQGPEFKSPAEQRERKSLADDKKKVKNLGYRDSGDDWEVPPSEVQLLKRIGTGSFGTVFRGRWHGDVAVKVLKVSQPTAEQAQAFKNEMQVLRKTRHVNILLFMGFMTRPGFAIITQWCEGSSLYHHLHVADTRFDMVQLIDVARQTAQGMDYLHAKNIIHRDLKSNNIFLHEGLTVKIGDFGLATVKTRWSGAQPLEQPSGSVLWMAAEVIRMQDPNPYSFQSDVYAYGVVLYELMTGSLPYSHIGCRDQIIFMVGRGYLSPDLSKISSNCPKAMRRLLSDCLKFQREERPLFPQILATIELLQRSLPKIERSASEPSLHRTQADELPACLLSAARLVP
Briefly: Biochemical assay for A-Raf.1 (coupled pyruvate kinase/lactate dehydrogenase). The settings on record: read-out: ARAF.1 IC50. In outline: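 IC50 values came from four-parameter sigmoidal fits of percent inhibition, using rates over the 4 to 5 h window of continuous A340 readings (6 h, 30° C). The coupled PK/LDH system tracked NADH oxidation during 5.55 nM A-Raf activity on 30.1 nM MEK at 1 mM ATP, buffer pH 7.5.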

T1 sequence (P15056 416-766): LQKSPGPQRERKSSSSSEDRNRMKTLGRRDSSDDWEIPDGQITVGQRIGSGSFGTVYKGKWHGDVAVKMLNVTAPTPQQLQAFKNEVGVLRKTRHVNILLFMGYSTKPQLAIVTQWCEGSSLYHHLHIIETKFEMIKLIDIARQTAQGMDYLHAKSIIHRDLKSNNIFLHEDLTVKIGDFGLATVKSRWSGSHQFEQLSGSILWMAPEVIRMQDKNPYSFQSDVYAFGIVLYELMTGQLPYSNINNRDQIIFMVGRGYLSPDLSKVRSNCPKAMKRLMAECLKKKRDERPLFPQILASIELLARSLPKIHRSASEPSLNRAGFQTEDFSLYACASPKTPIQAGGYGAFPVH

For `Cc1ncc(NC(=O)NCCC2(C)CC2)cc1-c1cc(OCCO)nc(-c2ccnc(NC(=O)C3CC3)c2)c1` [Example 113], the pIC50 in experiment [1] is at least 7.00; in experiment [2], 6.30 to 7.00; in experiment [3], at least 7.00; in experiment [4] it was 6.00 to 6.30.

As to `COC(C)(C)CCNC(=O)Nc1cc(-c2ccnc(-c3ccnc(NC(=O)C4CC4)c3)c2)c(F)cc1F` [Example 162], the negative-log IC50 (pIC50) in experiment [1] was at least 7.00; in experiment [2] it was 5.00 to 6.00; in experiment [3], at least 7.00; in experiment [4], below 6.00.
